Marks after values point to notes of the source that are not given here.
Columns and labels:
[1] = tested on: T2 cells loaded with indicated peptides; test: CTL activity generated from PBMC of different donors with IgE peptides on transfected Drosophila cells, chromium release; format: cell-based, human; details: x: number of donor from whom anti-IgE CTL was generated; N: number of donor tested
Method: CD8 T cells were purified from individual donors and cultured with Drosophila cells transfected with HLA-A2, hB7-1, hB7-2, hICAM-1 and hLFA-3 molecules in the presence of indicated peptides. After being cultured for six days, low doses of hIL-2 was added to the culture and re-stimulated with peptides loaded autologous adherent cells for an additional seven days. The CTLs were then harvested and the specific killing activities were tested with ^51Cr labeled T2 cells that loaded with indicated peptides FIGS. 9A through 9D by a standard chromium release assay. [table]

[2] = tested on: peptides loaded RMAS (K^b, D^b) cells; test: In vitro generation of IgE peptide specific CTLs, 51Cr release against peptide loaded RMAS cells; format: cell-based; details: naive mouse CD8 T cells, Drosophila APC with D^b, B7-1, ICAM-1; Day 9
Method: CD8^+ T cells were purified from lymph nodes of CBF1/J mice (FIGS. 2A, 2B and 2D) or from B6, interferon γ knock out mice (IFNγ^−/−) or perform (PF^−/−) knock out mice (FIG. 2C). The purified CD8 T cells were cultured with indicated IgE peptides presented by SC2 cells transfected with D^b MHC class I, B7-1 (CD80) and ICAM-1 (CD54) molecules. Low dose of recombinant IL-2 (20 units/ml) was added to the culture at Day 3 and every other day thereafter. On Day 9, CTL activity was measured against ^51Cr labeled RMAS cells loaded with or without indicated IgE peptides. In FIG. 2D, anti-D^b mAb (20 μg/ml) was added at the beginning of CTL assay.
(§1) CTL Assay: Epitope-bearing (target) cells are used as target cells in a ^51 Cr release assay. 5×10^6 target cells in RPMI medium containing 4% fetal calf serum, 1% HEPES buffer and 0.25% gentamycin are labeled at 37° C. for one hour with 0.1 mCi ^51Cr. Cells are washed four times and diluted to 10^5 cells/ml in RPMI with 10% fetal bovine serum (HyClone). In a 96-well microtiter plate, 100 μl effector CTLs and 100 μl peptide-loaded, ^51Cr-labeled target cells are combined at ratios of 100:1, 20:1 and 4:1 (effector: target). K562 cells are added at a ratio of 20:1 (K562) to reduce natural killer cell background lysis. Non-specific lysis is assessed using cells labeled with ^51Cr as described above, but not bearing the epitope cell line. Controls to measure spontaneous release and maximum release of ^51Cr are included in duplicate. After incubation at 37° C. for six hours, the plates are centrifuged and the supernatants counted to measure ^51Cr release. Percent specific lysis is calculated using the following equation: […]
The ability of these IgE peptides in eliciting CTL responses was evaluated in vitro. As previously described, Drosophila cells transfected with MHC class I plus B7-1 and ICAM-1 are potent antigen presenting cells (APC) in activation of resting naïve CD8 T cells in vitro. Resting naïve CD8 T cells were purified from mouse lymph nodes and cultured with peptide loaded Drosophila cells transfected with L^d or D^b plus B7-1 and ICAM-1 in the absence of cytokines. IL-2 (20units/ml) was added at Day 3 and every other day thereafter. The CTL activity towards peptides loaded RMAS (K^b, D^b) cells or RMAS-L^d cells were measured on Day 9.

D^b class I molecules = target: T1, D^b class I molecules (Mus musculus, UniProt P01899); test: MHC class I stabilization assay on TAP- RMAS cells (H-2^b), flow cytometry; format: binding; details: for Stabilization of MHC: D^b, ratio of fluorescence intensity (with peptide - without peptide)/without peptide; for Binding to / stabilization of D^b, in words: MHC class I stabilization assay, RMAS cells
T1 construct: Antigen-transporting deficient (TAP^−) RMAS cells (H-2^b); endogenous in cells; host or cells: RMA-S (TAP 2 deficient, H-2^b)
T1 sequence (P01899 25-362): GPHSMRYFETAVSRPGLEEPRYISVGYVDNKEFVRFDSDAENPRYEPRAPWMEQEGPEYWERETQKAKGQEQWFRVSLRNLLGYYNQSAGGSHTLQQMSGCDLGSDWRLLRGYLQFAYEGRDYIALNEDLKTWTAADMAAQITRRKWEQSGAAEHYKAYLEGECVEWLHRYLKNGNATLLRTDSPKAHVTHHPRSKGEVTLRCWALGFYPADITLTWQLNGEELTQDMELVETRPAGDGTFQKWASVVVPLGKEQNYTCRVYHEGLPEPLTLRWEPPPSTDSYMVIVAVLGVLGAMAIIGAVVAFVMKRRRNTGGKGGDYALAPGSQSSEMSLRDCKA
T1 sequence (P01887 21-119 partner): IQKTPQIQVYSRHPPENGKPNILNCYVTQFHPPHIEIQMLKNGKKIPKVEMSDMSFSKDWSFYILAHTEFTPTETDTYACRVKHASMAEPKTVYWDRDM
Method: (§2) TAP 2 deficient RMA.S cells (FIG. 11B) or L^d transfected RMA.S cells (FIG. 11A) were incubated with indicated concentration of peptides at 28° C. overnight and then incubated at 37° C. for two to four hours. The cells were harvested and stained with mAb specific for L^d (FIG. 11B) or for D^b (FIG. 11A) and analyzed with FACScan.
(§3) The binding capacity of these synthetic peptides to L^d and D^b class I molecules were tested in an MHC class I stabilization assay (Cai et al. (1996) supra). Antigen-transporting deficient (TAP^−) RMAS cells (H-2^b) or L^d transfected RMAS (RMAS-L^d) cells were cultured in the presence of a titrated concentration of peptides at 27° C. After overnight culturing at 27° C., these cells were further cultured for two hours at 37° C. and the surface expression of L^d or D^b on the cells were analyzed by flow cytometry. […] Of the five peptides predicted bind to D^b, only IgE44 binds Db strongly and two peptides, IgE16 and IgE125, bind D^b weakly. […] Thus, a total of six peptides were identified that bind to either L^d or D^b MHC class I molecules.

L^d class I molecules = target: T2, L^d class I molecules (Mus musculus, UniProt P01897); test: MHC class I stabilization assay on L^d transfected RMAS cells, flow cytometry; format: binding; details: for Stabilization of MHC: L^d, ratio of fluorescence intensity (with peptide - without peptide)/without peptide; for Binding to L^d, in words: MHC class I stabilization assay, RMAS-L^d cells
T2 construct: expressed in transfected cells; host or cells: RMA-S (RMAS-L^d), TAP-deficient
T2 sequence (P01897 25-362): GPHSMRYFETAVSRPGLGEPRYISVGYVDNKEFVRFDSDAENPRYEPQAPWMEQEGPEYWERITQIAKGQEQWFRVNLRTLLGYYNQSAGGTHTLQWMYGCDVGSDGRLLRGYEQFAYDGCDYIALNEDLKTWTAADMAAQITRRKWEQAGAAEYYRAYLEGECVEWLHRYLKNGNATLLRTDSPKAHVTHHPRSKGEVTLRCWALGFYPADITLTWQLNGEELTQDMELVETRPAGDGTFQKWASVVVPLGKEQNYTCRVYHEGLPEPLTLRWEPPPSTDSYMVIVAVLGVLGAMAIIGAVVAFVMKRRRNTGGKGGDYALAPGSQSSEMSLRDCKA
T2 sequence (P01887 21-119 partner): T1 sequence (P01887 21-119 partner)
Method: as §2, §3

[3] = tested on: peptides loaded RMAS-L^d cells; test: In vitro generation of IgE peptide specific CTLs, 51Cr release against peptide loaded RMAS-L^d cells; format: cell-based; details: naive mouse CD8 T cells, Drosophila APC with L^d, B7-1, ICAM-1; Day 9
Method: as §1
The ability of these IgE peptides in eliciting CTL responses was evaluated in vitro. […] The CTL activity towards peptides loaded RMAS (K^b, D^b) cells or RMAS-L^d cells were measured on Day 9.

With WLEDGQVMDV (Peptide antigen) [IgE 883] the “Specific Killing (x/N)” value [1] was 1/5.

QMFTCRVAHT (Peptide antigen) [IgE 887] was tested, and the “Specific Killing (x/N)” value [1] was 1/4.

With TLACLIQNFM (Peptide antigen) [IgE 895] the “Specific Killing (x/N)” value [1] was 3/4.

With MSTVNFPAL (Peptide antigen) [IgE 44] the “Specific CTL activity induced by the peptide, D^b restricted” value [2] was “specifically lysed”, the “Stabilization of MHC” value (D^b class I molecules) was “++ (more than two fold is calculate as “++”)” and the “Binding to / stabilization of D^b, in words” value (shortened to “Binding to / stabilization”) (D^b class I molecules) was “strongly”.

With KPCKGTASM (Peptide antigen) [IgE 11] the “Stabilization of MHC” value (L^d class I molecules) was “++ (more than two fold is calculate as “++”)”, the “Binding to L^d, in words” value (L^d class I molecules) was “strongly” and the “Specific CTL activity induced by the peptide, L^d restricted” value [3] was “induces antigen specific CTLs”.

In the case of WLSDRTYTC (Peptide antigen) [IgE 185], the “Specific Killing (x/N)” value [1] is reported as 0/8.

For GHILNDVSV (Peptide antigen) [IgE 125], the “Specific CTL activity induced by the peptide, D^b restricted” value [2] was “No specific CTL activity”, the “Stabilization of MHC” value (D^b class I molecules) was “+ (less than two-fold is scored as “+”)” and the “Binding to / stabilization” value (D^b class I molecules) was “weakly”.

For HSTIQLYCF (Peptide antigen) [IgE 114], the “Stabilization of MHC” value (L^d class I molecules) was “+ (less than two-fold is scored as “+”)” and the “Binding to L^d, in words” value (L^d class I molecules) was “weakly”.

GSNQGFFIF (Peptide antigen) [IgE 366] was tested, and the “Specific CTL activity induced by the peptide, D^b restricted” value [2] was “induce D^b restricted CTLs”, the “Stabilization of MHC” value (L^d class I molecules) was “++^c (more than two fold is calculate as “++”)” and the “Binding to L^d, in words” value (L^d class I molecules) was “strongly”. For the same sequence, the “Binding to / stabilization” value (D^b class I molecules) was “^cIgE 366 also stabilizes D^b class I molecules”, the “Binding to / stabilization” value (D^b class I molecules; listed as IgE366) was “binds both L^d and D^b” and the “Specific CTL activity induced by the peptide, L^d restricted” value [3] was “inducing L^d restricted CTLs”.

With SLNGTTMTL [IgE 47] the “Specific Killing (x/N)” value [1] was 7/8.

For WVDNKTFSV [IgE 96], the “Specific Killing (x/N)” value [1] was 3/8.

In the case of QVMDVDLSTA (Peptide antigen) [IgE 898], the “Specific Killing (x/N)” value [1] is reported as 3/4.

In the case of SLLTVSGAWA (Peptide antigen) [IgE 876], the “Specific Killing (x/N)” value [1] is reported as 0/5.

For TASMTLGCL (Peptide antigen) [IgE 16], the “Specific CTL activity induced by the peptide, D^b restricted” value [2] was “No specific CTL activity”, the “Stabilization of MHC” value (D^b class I molecules) was “+ (less than two-fold is scored as “+”)” and the “Binding to / stabilization” value (D^b class I molecules) was “weakly”.

With TLTVTSTLPV (Peptide antigen) [IgE 884] the “Specific Killing (x/N)” value [1] was 8/8.

For YATISLLTV (Peptide antigen) [IgE 890], the “Specific Killing (x/N)” value [1] was 4/5.
